Measurements as given in patent US20240398757A1 (COCRYSTAL PHARMA, INC., priority 2022, published 2024).

Each compound was assayed against T1, SARS2 protease (Severe acute respiratory syndrome coronavirus 2, UniProt P0DTD1) (assay: SARS-CoV-2 protease inhibition assay (SARS2 FRET protease assay)). Conditions: IC50 (μM), SARS2 protease 30 nM, peptide substrate 1.3 μM, 120 minutes at 37° C., compounds 20 μM to 0.075 nM.
T1 construct: SARS2 protease was added to a final concentration of 30 nM
Format: biochemical

| SMILES | IC50 |
| --- | --- |
| CCCC[C@H](NC(=O)O[C@@H](c1ccccc1)C(C)(C)c1cccc(Cl)c1)C(=O)N[C@H](C=O)C[C@@H]1CCNC1=O [Compound A61] | < 0.1 nM |
| CCCC[C@H](NC(=O)O[C@H](c1ccccc1)C(C)(C)c1cccc(Cl)c1)C(=O)N[C@H](C=O)C[C@@H]1CCNC1=O [Compound A62] | 148 nM |
| CCCC[C@H](NC(=O)OC(c1ccc(F)cc1)C1(c2cccc(F)c2)CC1)C(=O)N[C@H](C=O)C[C@@H]1CCNC1=O (stereo partly shown) [Compound A64] | 3 nM |
| CC(C)C[C@H](NC(=O)OC(c1cccc(Cl)c1)C1(c2cccc(Cl)c2)CCCCC1)C(=O)N[C@@H](C[C@@H]1CCNC1=O)C(=O)C(=O)NC1CC1 (stereo partly shown) [Compound A65] | 571 nM |
| CCC(CC)(c1cccc(Cl)c1)C(OC(=O)N[C@@H](CC(C)C)C(=O)N[C@H](C=O)C[C@@H]1CCNC1=O)c1cccc(Cl)c1 (stereo partly shown) [Compound A66] | 259 nM |
| O=C[C@H](C[C@@H]1CCNC1=O)NC(=O)[C@H](CC1CCCCC1)NC(=O)OC(c1ccccc1)C(F)(F)c1cccc(F)c1 (stereo partly drawn) [Compound A67, 2,2-difluoro-2-(3-fluorophenyl)-1-phenylethyl ((S)-3-cyclohexyl-1-oxo-1-(((S)-1-oxo-3-((S)-2-oxopyrrolidin-3-yl)propan-2-yl)amino)propan-2-yl)carbamate] | 2 nM |
| CCCC[C@H](NC(=O)OC(c1ccccc1)C(C)(C)c1cccc(F)c1)C(=O)N[C@@H](C[C@@H]1CCNC1=O)C(=O)C(=O)NCC (stereo partly shown) [Compound A68] | 29 nM |
| CCCC[C@H](NC(=O)OC(c1ccc(F)cc1)C(F)(F)c1cccc(Cl)c1)C(=O)N[C@H](C=O)C[C@@H]1CCNC1=O (stereo partly shown) [Compound A69] | 8 nM |
| CCCC[C@H](NC(=O)OC(c1ccc(F)cc1)C(F)(F)c1cccc(Cl)c1)C(=O)N[C@@H](C[C@@H]1CCNC1=O)C(=O)C(=O)NC1CC1 (stereo partly shown) [Compound A70] | 28 nM |
| CCCC[C@H](NC(=O)OC(c1ccc(F)cc1)C1(c2cccc(F)c2)CC1)C(=O)N[C@@H](C[C@@H]1CCNC1=O)C(=O)C(=O)NC1CC1 (stereo partly shown) [Compound A71] | 222 nM |
| CC(C)C[C@H](NC(=O)O[C@@H](c1ccccc1)C(F)(F)c1cccc(Cl)c1)C(=O)N[C@H](C=O)C[C@@H]1CCNC1=O [Compound A72, 2-(3-chlorophenyl)-2,2-difluoro-1-phenylethyl ((S)-4-methyl-1-oxo-1-(((S)-1-oxo-3-((S)-2-oxopyrrolidin-3-yl)propan-2-yl)amino)pentan-2-yl)carbamate] | < 0.01 nM |
| CCCC[C@H](NC(=O)OC(c1ccccc1)C(F)(F)c1cccc(Cl)c1)C(=O)NC(CC1CC(C)(C)NC1=O)C(=O)C(=O)NC1CC1 (stereo partly shown) [Compound A73] | 1390 nM |
| O=C(N[C@@H](CC1CCCCC1)C(=O)N[C@@H](C[C@@H]1CCNC1=O)C(=O)C(=O)NC1CC1)OC(c1ccccc1)C(F)(F)c1cccc(F)c1 (stereo partly drawn) [Compound A74, 2,2-difluoro-2-(3-fluorophenyl)-1-phenylethyl ((S)-3-cyclohexyl-1-(((S)-4-(cyclopropylamino)-3,4-dioxo-1-((S)-2-oxopyrrolidin-3-yl)butan-2-yl)amino)-1-oxopropan-2-yl)carbamate] | 186 nM |
| O=C(N[C@@H](CC1CCCCC1)C(=O)N[C@@H](C[C@@H]1CCNC1=O)C(O)S(=O)(=O)O)OC(c1ccccc1)C(F)(F)c1cccc(Cl)c1 (stereo partly shown) [Compound A75] | 9 nM |
| CCCC[C@H](NC(=O)OC(c1ccc(F)cc1)C1(c2cccc(Cl)c2)CC1)C(=O)N[C@@H](C[C@@H]1CCNC1=O)C(=O)C(=O)NC1CC1 (stereo partly shown) [Compound A76] | 53 nM |
| CCCC[C@H](NC(=O)OC(c1ccccc1)C(F)(F)c1cccc(F)c1)C(=O)N[C@H](C=O)C[C@@H]1CCNC1=O (stereo partly drawn) [Compound A77, 2,2-difluoro-2-(3-fluorophenyl)-1-phenylethyl ((S)-1-oxo-1-(((S)-1-oxo-3-((S)-2-oxopyrrolidin-3-yl)propan-2-yl)amino)hexan-2-yl)carbamate] | 9 nM |
| CCCC[C@H](NC(=O)OC(c1cccc(F)c1)C(F)(F)c1cccc(F)c1)C(=O)N[C@H](C=O)C[C@@H]1CCNC1=O (stereo partly shown) [Compound A78] | 9 nM |

| SMILES | IC50 |
| --- | --- |
| CC(C)C[C@H](NC(=O)O[C@H](c1ccccc1)C(F)(F)c1cccc(Cl)c1)C(=O)N[C@H](C=O)C[C@@H]1CCNC1=O [Compound A79] | 13 nM |
| CCCC[C@H](NC(=O)OC(c1cccc(F)c1)C(F)(F)c1cccc(F)c1)C(=O)N[C@@H](C[C@@H]1CCNC1=O)C(=O)C(=O)NC1CC1 (stereo partly shown) [Compound A80] | 140 nM |
| CCCC[C@H](NC(=O)OC(c1ccccc1)C(F)(F)c1cccc(Cl)c1)C(=O)N[C@H](C=O)CC1CC(C)(C)NC1=O (stereo partly shown) [Compound A81] | 470 nM |
| CC(C)C[C@H](NC(=O)OC(c1cccc(Cl)c1)C1(c2cccc(Cl)c2)CCNCC1)C(=O)N[C@@H](C[C@@H]1CCNC1=O)C(=O)C(=O)NC1CC1 (stereo partly shown) [Compound A83] | 510 nM |
| CC(C)C[C@H](NC(=O)OC(c1ccc(Cl)cc1)C1(c2cccc(Cl)c2)CCN(C(=O)OC(C)(C)C)CC1)C(=O)N[C@H](C=O)C[C@@H]1CCNC1=O (stereo partly shown) [Compound A85] | 460 nM |
| CC(C)C[C@H](NC(=O)OC(c1cccc(Cl)c1)C1(c2cccc(Cl)c2)CCN(C(=O)OC(C)(C)C)CC1)C(=O)N[C@H](C=O)C[C@@H]1CCNC1=O (stereo partly shown) [Compound A86] | 370 nM |
| CCCC[C@H](NC(=O)OC(c1ccccc1)C(F)(F)c1cccc(F)c1)C(=O)N[C@@H](C[C@@H]1CCNC1=O)C(=O)C(=O)NC1CC1 (stereo partly shown) [Compound A87] | 90 nM |
| CC(C)C[C@H](NC(=O)OC(c1ccc(Cl)cc1)C1(c2cccc(Cl)c2)CCN(C(=O)OC(C)(C)C)CC1)C(=O)N[C@@H](C[C@@H]1CCNC1=O)C(=O)C(=O)NC1CC1 (stereo partly shown) [Compound A88] | 630 nM |
| CCC[C@H](NC(=O)OC(c1ccccc1)C(F)(F)c1cccc(F)c1)C(=O)N[C@H](C=O)C[C@@H]1CCNC1=O (stereo partly shown) [Compound A89] | 20 nM |
| CCCC[C@H](NC(=O)OC(c1ccccc1)C1(c2cccc(Cl)c2)CC1)C(=O)N[C@H](C=O)C[C@@H]1CCNC1=O (stereo partly shown) [Compound A90] | 40 nM |
| CCCC[C@H](NC(=O)OC(c1ccc(F)cc1)C1(c2cccc(Cl)c2)CC1)C(=O)N[C@H](C=O)C[C@@H]1CCNC1=O (stereo partly shown) [Compound A91] | 10 nM |
| CC(C)C[C@H](NC(=O)OC(c1ccc(Cl)cc1)C1(c2cccc(Cl)c2)CCNCC1)C(=O)N[C@@H](C[C@@H]1CCNC1=O)C(=O)C(=O)NC1CC1 (stereo partly shown) [Compound A92] | 1120 nM |
| O=C[C@H](C[C@@H]1CCNC1=O)NC(=O)[C@H](CC1CCCC1)NC(=O)OC(c1ccccc1)C(F)(F)c1cccc(Cl)c1 (stereo partly drawn) [Compound A93, 2-(3-chlorophenyl)-2,2-difluoro-1-phenylethyl ((S)-3-cyclopentyl-1-oxo-1-(((S)-1-oxo-3-((S)-2-oxopyrrolidin-3-yl)propan-2-yl)amino)propan-2-yl)carbamate] | 0.3 nM |
| O=C(N[C@@H](CC1CC1)C(=O)N[C@@H](C[C@@H]1CCNC1=O)C(=O)C(=O)NC1CC1)OC(c1ccccc1)C(F)(F)c1cccc(Cl)c1 (stereo partly shown) [Compound A94] | 12.3 nM |
| O=C[C@H](C[C@@H]1CCNC1=O)NC(=O)[C@H](CC1CC1)NC(=O)OC(c1ccccc1)C(F)(F)c1cccc(Cl)c1 (stereo partly shown) [Compound A95] | 0.9 nM |
| CCCC[C@H](NC(=O)OC(c1cccc(F)c1)C1(c2cccc(Cl)c2)CC1)C(=O)N[C@H](C=O)C[C@@H]1CCNC1=O (stereo partly shown) [Compound A96] | 7 nM |
| CCCC[C@H](NC(=O)OC(c1cccc(F)c1)C1(c2cccc(F)c2)CC1)C(=O)N[C@H](C=O)C[C@@H]1CCNC1=O (stereo partly shown) [Compound A97] | 2.1 nM |
